Source: patent EP0552417B1, “Cyclic peptides and use thereof” (priority 1991, dated 1993)
Non-standard residues stand in square brackets, D forms with d. Residues, ends and D or L forms follow the SMILES beside them. *: point of attachment. 1Nal = N[C@@H](Cc1cccc2ccccc12)C(=O)O; Bn = c1ccc(C*)cc1

What was measured:
[1] = test system: ETB; assay: ETB radio receptor assay *2, 125I-endothelin-1, guinea pig kidney crude membrane fraction; assay type: binding, Guinea pigs; details: relative activity, 37 °C, 90 minutes
Method in brief: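 Radioligand binding used crude guinea pig kidney membranes (2.1 µg protein) with 740 Bq 125I-endothelin-1. Incubation was 90 min at 37 °C in 50 mM Tris-HCl pH 7.4, 0.1 mM PMSF, 1 mM EDTA, 0.2% BSA. Bound radioactivity was collected by GF/B filtration and measured by gamma counting.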

[2] = target: T1, endothelin receptor A (ETA) (Sus scrofa, UniProt Q29010); assay: Assay of affinity for receptor (1): binding activity on ETA receptor, 125I-labeled endothelin-1, porcine heart membrane fraction; design: key: relative specific activity; reference cyclic pentapeptide ETA binding = 1.0; details: specific activity, taking the binding activity of control cyclo[-D-Glu-Ala-D-aIle-Leu-D-Trp-] on receptor A as 1.0, 25°C, 1 hour
T1 construct: A membrane fraction prepared from the porcine heart; from tissue; host or cells: porcine heart membrane fraction
T1 sequence (Q29010 21-427): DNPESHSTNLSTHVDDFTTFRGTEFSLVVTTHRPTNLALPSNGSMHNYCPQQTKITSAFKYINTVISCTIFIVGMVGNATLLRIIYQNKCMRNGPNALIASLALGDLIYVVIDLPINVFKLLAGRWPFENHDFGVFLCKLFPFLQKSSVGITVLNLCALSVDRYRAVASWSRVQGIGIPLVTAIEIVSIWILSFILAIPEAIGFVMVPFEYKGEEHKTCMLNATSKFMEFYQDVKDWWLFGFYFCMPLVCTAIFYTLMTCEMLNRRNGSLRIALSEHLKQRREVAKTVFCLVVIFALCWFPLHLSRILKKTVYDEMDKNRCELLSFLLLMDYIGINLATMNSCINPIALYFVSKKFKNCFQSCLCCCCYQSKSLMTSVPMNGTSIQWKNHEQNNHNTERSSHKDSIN
Method in brief: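 Porcine heart membranes (0.15 mg/ml) incubated with 125I-endothelin-1 and test peptide for 1 h at 25°C, then centrifuged; pellet-bound radioactivity counted by gamma counter. Values given as specific activity relative to reference cyclo[-D-Glu-Ala-D-aIle-Leu-D-Trp-], set at 1.0.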

Binding Activity on ET Receptor (R. act.) ETB*2 [1] | Binding Activity on ET Receptor (R. act.) ETA [2] | SMILES
7.7 | 8.3 | CC(C)C[C@@H]1NC(=O)[C@@H](CC(C)C)NC(=O)[C@H](CC(=O)O)NC(=O)[C@H](Cc2cccc3ccccc23)NC(=O)[C@@H](CC(=O)O)NC(=O)[C@@H](Cc2c[nH]c3ccccc23)NC1=O [Example 23, Cyclo[-D-Asp-Nal(1)-Asp-D-Leu-Leu-D-Trp-]] (cyclo([1Nal]D[dL]L[dW][dD]))
42 | 17 | CC(C)C[C@@H]1NC(=O)[C@@H](CC(C)C)NC(=O)[C@@H]2CCCN2C(=O)[C@H](Cc2c[nH]c3ccccc23)NC(=O)[C@@H](CC(=O)O)NC(=O)[C@@H](Cc2c[nH]c3ccccc23)NC1=O [Example 36, Cyclo[-D-Asp-Trp-Pro-D-Leu-Leu-D-Trp-]] (cyclo(L[dW][dD]WP[dL]))
44 | 20 | CC(C)C[C@@H]1NC(=O)[C@@H](CC(C)C)NC(=O)[C@H](CCC(=O)O)NC(=O)[C@H](Cc2c[nH]c3ccccc23)NC(=O)[C@@H](CC(=O)O)NC(=O)[C@@H](Cc2c[nH]c3ccccc23)NC1=O [Example 34, Cyclo[-D-Asp-Trp-Glu-D-Leu-Leu-D-Trp-]] (cyclo(E[dL]L[dW][dD]W))
24 | 9.1 | CC(C)C[C@@H]1NC(=O)[C@H](Cc2c[nH]c3ccccc23)NC(=O)[C@@H](CC(=O)O)NC(=O)[C@@H](Cc2c[nH]c3ccccc23)NC(=O)[C@H](CC(C)C)NC(=O)[C@@H](CC(C)C)NC1=O [Example 35, Cyclo[-D-Asp-Trp-Leu-D-Leu-Leu-D-Trp-]] (cyclo(L[dL]L[dW][dD]W))
18 | 24 | CC(C)C[C@@H]1NC(=O)[C@@H](CC(C)C)NC(=O)[C@H](CO)NC(=O)[C@H](Cc2c[nH]c3ccccc23)NC(=O)[C@@H](CC(=O)O)NC(=O)[C@@H](Cc2c[nH]c3ccccc23)NC1=O [Example 37, Cyclo[-D-Asp-Trp-Ser-D-Leu-Leu-D-Trp-]] (cyclo(L[dW][dD]WS[dL]))
170 | 13 | CC(C)C[C@@H]1NC(=O)[C@@H](CC(C)C)NC(=O)[C@H](COCc2ccccc2)NC(=O)[C@H](Cc2c[nH]c3ccccc23)NC(=O)[C@@H](CC(=O)O)NC(=O)[C@@H](Cc2c[nH]c3ccccc23)NC1=O [Example 38, Cyclo[-D-Asp-Trp-Ser(Bzl)-D-Leu-Leu-D-Trp-]] (cyclo(L[dW][dD]WS(Bn)[dL]))
100 | 76 | CC(C)C[C@@H]1NC(=O)[C@@H](CC(C)C)NC(=O)[C@H](CC(=O)O)NC(=O)[C@H](Cc2c[nH]c3ccccc23)NC(=O)[C@@H](CC(=O)O)NC(=O)[C@@H](Cc2c[nH]c3ccccc23)NC1=O [Example 8, cyclo[-D-Asp-Trp-Asp-D-Leu-Leu-D-Trp-]] (cyclo(D[dL]L[dW][dD]W))
